In one data set the target is T1, dopamine D2 receptors (Rattus norvegicus, UniProt P61169).
T1 construct: Striata and cerebella were rapidly dissected, processed and analyzed as described by Kapur et al. (2000b); from tissue; host or cells: rat brain in vivo (striatum; cerebellum also dissected)
The data set is described as follows: In-vivo D2 receptor occupancy with 3H-raclopride. To be noted: rats; for ED50: rat, sc in acidified saline; for D2 occupancy: dose 1-40 mg/kg/sc in acidified saline, sacrifice 1 hour after drug. On the procedure:
(§1) To document the fact that the compounds cross the blood brain barrier, occupancy at the dopamine D2 receptors using in-vivo occupancy measures was examined in rats. The test compound was injected subcutaneously followed 30 minutes later by an intravenous injection of ^3H-raclopride. The animals were sacrificed 1 hour after drug administration. In animals combining occupancy and catalepsy, rats were tested for catalepsy 10 minutes before sacrifice. Animals were sacrificed by decapitation. Striata and cerebella were rapidly dissected, processed and analyzed as described by Kapur et al. (2000b) Compounds which crossed the blood brain barrier and gave predictable dose-response relationships were then tested to see if they gave catalepsy. Catalepsy is the time-honoured animal model to predict the propensity of compounds to give rise to extrapyramidal side-effects in humans. Catalepsy was measured using a grid-test by a rater blind to the treatment-assignment. The time that animals remained immobile was used as an index of catalepsy by transforming raw-scores into catalepsy scores, with a score of 1 as questionable catalepsy and scores of 2-5 reflecting severity of catalepsy (Ahlenius S et al. 1986).

In data set [1] the test system is rats. Nature of the data set: Catalepsy grid-test (motor side-effects). To be noted: for motor-side-effects (catalepsy): sc, doses 1-40 mg/kg. Type of data set: in vivo. On the procedure:
as §1

In data set [2] the test system is rats. Nature of the data set: Conditioned avoidance response (CAR), two-way active avoidance shuttlebox. In kind it is in vivo. On the procedure:
Therefore the new compounds were tested for activity in this model. For conditioned avoidance-response, rats were trained and tested in a computer assisted two-way active avoidance (shuttlebox), with an 80 dB white-noise as a conditioned stimulus, followed ten seconds later by a 0.6 mA shock as the unconditioned stimulus. Details of the procedure have been described elsewhere (Wadenberg M L et al. 2000).

In the next data set the target is dopamine D2 receptor (Homo sapiens, UniProt P14416). Nature of the data set: Binding affinity for dopamine D2 receptor, 3H-raclopride as ligand (Seeman 1993).
Sequence of dopamine D2 receptor (P14416 whole entry, species assumed, the tested form may be a part): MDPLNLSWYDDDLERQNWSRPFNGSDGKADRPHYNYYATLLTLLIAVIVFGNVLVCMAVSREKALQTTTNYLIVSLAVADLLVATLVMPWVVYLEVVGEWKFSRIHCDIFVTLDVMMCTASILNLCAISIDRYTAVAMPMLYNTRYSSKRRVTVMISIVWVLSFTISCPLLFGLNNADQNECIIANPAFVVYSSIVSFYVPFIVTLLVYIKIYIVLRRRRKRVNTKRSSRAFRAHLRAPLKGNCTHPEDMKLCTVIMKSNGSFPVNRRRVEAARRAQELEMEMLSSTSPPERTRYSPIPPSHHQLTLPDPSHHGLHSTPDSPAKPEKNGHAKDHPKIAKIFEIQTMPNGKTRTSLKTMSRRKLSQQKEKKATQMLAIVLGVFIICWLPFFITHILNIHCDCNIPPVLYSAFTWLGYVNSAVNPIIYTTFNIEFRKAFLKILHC
The next data set deals with FOS protein. The data set is described as follows: FOS immunohistochemistry. Type of data set: in vivo. To be noted: rats, two hours after injection; for FOS protein induction in the nucleus accumbens: shell of nucleus accumbens. On the procedure: In particular, all antipsychotics induce FOS in the nucleus accumbens regions while those likely to give rise to motor side-effects also induce FOS in the dorsolateral striatum (Robertson et al. 1994). For examining the distribution of FOS protein by the test compound, the test compound was injected into rats and two hours later, the animals were deeply anaesthetized with sodium phenobarbitol (100 mg/kg i.p.) and perfused transcardially, the brains removed and post-fixed. Immunostaining was performed on free-floating forty-micron sections with a rabbit-raised polyclonal primary anti-FOS antiserum (diluted 1:250 and incubated 48 hours at 4° C.) (4-17 aminoacids of human Fos; Oncogene Research Products, Cambridge, Mass., USA). Exposure to a biotinylated goat anti-rabbit secondary antibody (1:600, Vector Laboratories, Burlingame, Calif., USA) followed by incubation with horseradish peroxidase avidin-biotin complex (Vector Laboratories, Vector Laboratories, Burlingame, Calif., USA) was used to visualize the FOS staining. Fos-immunoreactive nuclei were counted within 400×400 μm grid at a magnification of 100× in the shell of nucleus accumbens and dorsolateral striatum.

pKi: −log10 of the molar value. Where a name gives a salt, the structure may show the parent alone.

T1 sequence (P61169 whole entry): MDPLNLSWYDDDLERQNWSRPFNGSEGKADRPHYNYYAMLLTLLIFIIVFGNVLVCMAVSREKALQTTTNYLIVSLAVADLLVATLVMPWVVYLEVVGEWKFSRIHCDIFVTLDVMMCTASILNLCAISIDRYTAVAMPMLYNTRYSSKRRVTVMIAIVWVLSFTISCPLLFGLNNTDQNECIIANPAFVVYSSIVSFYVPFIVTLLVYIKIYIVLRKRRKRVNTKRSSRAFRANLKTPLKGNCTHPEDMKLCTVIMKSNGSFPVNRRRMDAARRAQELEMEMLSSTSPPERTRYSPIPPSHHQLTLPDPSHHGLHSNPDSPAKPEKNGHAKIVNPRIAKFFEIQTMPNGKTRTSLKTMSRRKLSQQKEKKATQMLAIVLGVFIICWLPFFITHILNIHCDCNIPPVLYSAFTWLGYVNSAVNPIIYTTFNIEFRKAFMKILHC

A word on the melting point: it is the temperature, or range, at which the solid turns liquid. In the case of `CCCCN1CCN(C2=Nc3cc(C(F)(F)F)ccc3Oc3ccccc32)CC1` (as salt: HCl) [Example 5, 8-Trifluoromethyl-11-(4-butylpiperazin-1-yl)-dibenzo[b,f][1,4]oxazepine.HCl], the melting point was 240 °C (dec.).
One may read the ED50 as the midpoint of the dose-response relation. Broadly, the inhibition is the percentage by which the read-out fell short of the control. A lower inhibition goes with a weak effect. For orientation: pKi means −log10 of the Ki, conventionally taken in molar units. Lower therefore signals a high Ki. Molecule `OCCN1CCN(C2=Nc3cc(Cl)ccc3Oc3ccccc32)CC1` [Example 7, 8-Chloro-11-(4-(2′-hydroxyethyl)piperazin-1-yl)-dibenzo[b,f][1,4]oxazepine] came in with a melting point of 149 to 150 °C. Also, at dopamine D2 receptors, it took a dose of 10 mg/kg to reach the 50% effect level (ED50) and the D2 occupancy is reported as 22-75%. Further, in the data set on rats [1], the “motor-side-effects (catalepsy)” value was “No animals showed any evidence of motor-side-effects”. This molecule yielded an inhibition at 20 mg/kg in the data set with rats [2] (Rattus norvegicus, 20 mg/kg/sc) above 50%. The molecule also showed a pKi at dopamine D2 receptor of 6.97.
Molecule `CCCCN1CCN(C2=Nc3cc(C(F)(F)F)ccc3Oc3ccccc32)CC1` [Example 5, 8-Trifluoromethyl-11-(4-butylpiperazin-1-yl)-dibenzo[b,f][1,4]oxazepine.HCl] showed a pKi at dopamine D2 receptor of 6.60.
As for `CN1CCN(C2=Nc3cc(Cl)ccc3Nc3ccccc32)CC1` [Clozapine, reference compound], in the data set with rats [1] (doses up to 20 mg/kg/sc), the catalepsy entry was “did not give rise to catalepsy”.
In the case of `CCCN1CCN(C2=Nc3cc(Cl)ccc3Oc3ccccc32)CC1` [Example 8, 8-Chloro-11-(4-propylpiperazin-1-yl)-dibenzo[b,f][1,4]oxazepine], the melting point fell in the range of 90 to 91 °C. In addition, the pKi at dopamine D2 receptor is 7.64.
In the case of `CC(C)N1CCN(C2=Nc3cc(Cl)ccc3Sc3ccccc32)CC1` [Example 15, 8-Chloro-11-(4-isopropylpiperazin-1-yl)-dibenzo[b,f][1,4]thiazepine.HCl], the pKi on dopamine D2 receptor is 7.24.
Turning to `CC(C)N1CCN(C2=Nc3cc(C(F)(F)F)ccc3Oc3ccccc32)CC1` (as salt: HCl) [Example 4, 8-Trifluoromethyl-11-(4-isopropylpiperazin-1-yl)-dibenzo[b,f][1,4]oxazepine.HCl], the melting point is 270 °C (dec.).
`CC(C)N1CCN(C2=Nc3cc(Cl)ccc3Oc3ccccc32)CC1` [Example 9, 8-Chloro-11-(4-isopropylpiperazin-1-yl)-dibenzo[b,f][1,4]oxazepine] came in with a melting point of 55 to 56 °C. In addition, the pKi on dopamine D2 receptor was 6.82.
Turning to `OCCN1CCN(C2=Nc3cc(C(F)(F)F)ccc3Oc3ccccc32)CC1` [Example 2, 8-Trifluoromethyl-11-(4-(2′-hydroxyethyl)piperazin-1-yl)-dibenzo[b,f][1,4]oxazepine], the melting point lay in the range of 110 to 111 °C. The molecule also showed a pKi at dopamine D2 receptor of 6.38.
As to `CCN1CCN(C2=Nc3cc(Cl)ccc3Oc3ccccc32)CC1` [Example 6, 8-Chloro-11-(4-ethylpiperazin-1-yl)-dibenzo[b,F][1,4]oxazepine], at dopamine D2 receptors, the ED50 is around 5 mg/kg and the D2 occupancy is given as 5-81%. Further, the “motor-side-effects (catalepsy)” value with rats [1] is “No animals showed any evidence of motor-side-effects”. Also, the inhibition at 10 mg/kg with rats [2] (Rattus norvegicus, 10 mg/kg/sc) was above 50%. In the data set on FOS protein, the “FOS protein induction in the dorsolateral striatum” value is “no induction” and the “FOS protein induction in the nucleus accumbens” value is on record as “robust induction”. Besides, the pKi at dopamine D2 receptor is 7.38.
Take `CCN1CCN(C2=Nc3cc(Cl)ccc3Sc3ccccc32)CC1` [Example 12, 8-Chloro-11-(4-ethylpiperazin-1-yl)-dibenzo[b,f][1,4]thiazepine]: the melting point is 100 to 101 °C. The pKi at dopamine D2 receptor is 7.20.
`CCCCN1CCN(C2=Nc3cc(Cl)ccc3Oc3ccccc32)CC1` [Example 10, 8-Chloro-11-(4-butylpiperazin-1-yl)-dibenzo[b,f][1,4]oxazepine] displayed a melting point of 97 to 98 °C. For the same molecule, on dopamine D2 receptor, the pKi was 7.55.
For `CC(C)N1CCN(C2=Nc3cc(C(F)(F)F)ccc3Oc3ccccc32)CC1` [Example 4, 8-Trifluoromethyl-11-(4-isopropylpiperazin-1-yl)-dibenzo[b,f][1,4]oxazepine.HCl], on dopamine D2 receptor, the pKi is 6.67.
With `O=C(CCCN1CCC(O)(c2ccc(Cl)cc2)CC1)c1ccc(F)cc1` [haloperidol, reference compound], the inhibition of avoidance entry with rats [2] (>0.05 mg/kg/sc, without catalepsy or escape deficits) is “robust inhibition of avoidance”. Further, in the data set with FOS protein, the “FOS protein induction in the dorsolateral striatum” value was “resulted in FOS in the dorsolateral striatum” and the “FOS protein induction in the nucleus accumbens” value is “robust FOS induction”.
On to `OCCN1CCN(C2=Nc3cc(Cl)ccc3Sc3ccccc32)CC1` [Example 13, 8-Chloro-11-(4-(2′-hydroxyethyl)piperazin-1-yl)-dibenzo[b,f][1,4]thiazepine], for which the melting point lay within 110 to 111 °C. Also, the pKi on dopamine D2 receptor was 7.06.
`CCN1CCN(C2=Nc3cc(C(F)(F)F)ccc3Oc3ccccc32)CC1` [Example 1, 8-Trifluoromethyl-11-(4-ethylpiperazin-1-yl)-dibenzo[b,f][1,4]oxazepine] had a melting point of 76 to 77 °C. On dopamine D2 receptor, the pKi was 6.59.

(Values after patent US6890919B2, “Atypical antipsychotic agents having low affinity for the D2 receptor” (priority 2001, dated 2005).)
